In the supplement of paper PMC10307832:

Assays:
Assay in all cases: relative viability (nuclei count vs DMSO), 5 days (fraction); higher = more cells survive
[1] = compound: C[C@@H](C(=O)N[C@@H](C1CCCCC1)C(=O)N2CCC[C@H]2C(=O)N[C@@H]3[C@@H](CC4=CC=CC=C34)OCC#CC#CCO[C@@H]5CC6=CC=CC=C6[C@@H]5NC(=O)[C@@H]7CCCN7C(=O)[C@H](C8CCCCC8)NC(=O)[C@H](C)NC)NC [AZD5582]
How it was run: (§1)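 Five library-drug doses spaced by √10 were pinned onto vehicle-anchored 1536-well plates of lung cancer cell lines that had been kept overnight at 37 °C. Cells went 5 days without medium change, then were fixed, permeabilised and Hoechst-stained together, imaged at 4× and counted by MetaXpress. Viability is the ratio of treated-well to vehicle-well nuclei, taken as a median over plates. Plates required control CV below 25% and at least one doubling.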

[2] = compound: Cn1nnc2c(C(N)=O)ncn2c1=O [Temozolomide]
How it was run: as §1

[3] = compound: C[C@@H](C(=O)N[C@@H](C1CCCCC1)C(=O)N2CCC[C@H]2C(=O)N[C@@H]3[C@@H](CC4=CC=CC=C34)OCC#CC#CCO[C@@H]5CC6=CC=CC=C6[C@@H]5NC(=O)[C@@H]7CCCN7C(=O)[C@H](C8CCCCC8)NC(=O)[C@H](C)NC)NC [AZD5582] + CC1(C)CCC(c2ccc(Cl)cc2)=C(CN2CCN(c3ccc(C(=O)NS(=O)(=O)c4ccc(N[C@H](CCN5CCOCC5)CSc5ccccc5)c(S(=O)(=O)C(F)(F)F)c4)cc3)CC2)C1 [Navitoclax] (partner 0.5 µM)
How it was run: (§2)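 Values are medians from duplicate plates. Each reflects relative viability, defined as the nuclei count of treated wells over that of vehicle wells. Lung cancer cell lines in 1536-well plates were pin-tool dosed one day after seeding with one drug alone or with a fixed anchor-drug dose plus five library-drug doses (not always all listed) in √10 steps, then fixed, stained and imaged at 4× after 5 days.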

[4] = compound: Cn1nnc2c(C(N)=O)ncn2c1=O [Temozolomide] + N=C(N)NC(=N)NCCc1ccccc1 [Phenformin] (partner 250 µM)
How it was run: as §2

Row | Cell Line | relative viability ([1]; 0.001581 µM) | relative viability ([1]; 0.005 µM) | relative viability ([1]; 0.01581 µM) | relative viability ([1]; 0.05 µM) | relative viability ([2]; 0.2 µM) | relative viability ([2]; 0.6325 µM) | relative viability ([2]; 2 µM) | relative viability ([2]; 6.325 µM) | relative viability ([2]; 20 µM) | relative viability ([3]; first compound 0.001581 µM) | relative viability ([3]; first compound 0.005 µM) | relative viability ([3]; first compound 0.01581 µM) | relative viability ([3]; first compound 0.05 µM) | relative viability ([4]; first compound 0.2 µM) | relative viability ([4]; first compound 0.6325 µM) | relative viability ([4]; first compound 2 µM) | relative viability ([4]; first compound 6.325 µM) | relative viability ([4]; first compound 20 µM)
1 | LXF-289 | 0.958 | 1.01 | 0.968 | 1 | 1.04 | 0.959 | 1.01 | 1.03 | 0.892 | 0.948 | 0.935 | 0.919 | 0.934 | 0.553 | 0.53 | 0.511 | 0.457 | 0.458
2 | HCC-366 | 0.978 | 1.02 | 0.978 | 1.08 | 0.939 | 1 | 1.08 | 0.987 | 0.992 | 1.05 | 0.925 | 0.998 | 1.07 | 0.639 | 0.647 | 0.631 | 0.621 | 0.62
3 | RERF-LC-KJ | 0.715 | 0.668 | 0.912 | 0.802 | 0.982 | 1 | 1.04 | 0.978 | 1.01 | 0.375 | – | 0.825 | 0.295 | 0.444 | 0.466 | 0.442 | 0.41 | 0.427
4 | NCI-H1395 | 0.866 | 1 | – | 0.988 | 1 | 0.96 | 0.906 | 0.745 | 0.867 | 1.02 | 1.16 | – | 1.49 | 0.458 | 0.428 | 0.494 | 0.435 | 0.461
5 | COR-L23 | 1.02 | 1.11 | 0.966 | 1.03 | 1.19 | 1.04 | 1.05 | 1.04 | 0.955 | 0.963 | 1.07 | 1 | 1.22 | 0.511 | 0.475 | 0.437 | 0.462 | 0.428
6 | NCI-H1650 | 0.87 | 1.05 | 0.899 | 0.759 | 0.955 | 0.938 | 0.933 | 0.952 | 0.773 | 1.07 | 1.04 | 1.23 | 1.17 | 0.458 | 0.468 | 0.446 | 0.424 | 0.311
7 | HCC-44 | 0.822 | 0.724 | 0.872 | 0.483 | 1.02 | 0.986 | 0.987 | 0.999 | 1.01 | 0.919 | 0.692 | 1.01 | 0.581 | 0.194 | 0.238 | 0.17 | 0.185 | 0.315
8 | PC-3 [JPC-3] | 0.885 | 0.898 | 0.9 | 0.531 | 0.954 | 1.08 | 1.09 | 1.06 | 0.451 | 0.752 | 0.727 | 0.664 | 0.486 | 0.411 | 0.475 | 0.5 | 0.469 | 0.347
9 | NCI-H23 | 0.782 | 0.848 | 0.477 | 0.519 | 1.2 | 1.03 | 0.994 | 0.909 | 0.993 | 0.594 | 0.512 | 0.721 | 0.778 | 0.868 | 0.853 | 0.789 | 0.784 | 0.791
10 | NCI-H596 | 0.84 | – | 0.999 | 0.358 | 0.932 | 0.953 | 1.01 | 0.925 | 0.959 | 0.811 | 0.581 | 1.16 | 0.332 | 0.797 | 0.827 | 0.658 | 0.659 | 0.787
11 | LU99A | 1.07 | 1.02 | 0.954 | 1.11 | 1.06 | 0.946 | 1.03 | 0.97 | 1.03 | 0.882 | 0.998 | 0.805 | 0.976 | 0.983 | 0.8 | 0.865 | 0.68 | 0.803
12 | LCLC-97TM1 | 0.797 | 1.06 | 0.644 | 0.525 | 1.15 | 0.985 | 0.764 | 0.83 | 1.1 | – | 0.329 | 0.347 | 0.32 | 0.427 | 0.487 | 0.492 | 0.418 | 0.412
13 | HCC-78 | 0.85 | 1.08 | 0.834 | 0.746 | 0.762 | 0.937 | 1.04 | 0.906 | 0.931 | 0.69 | 0.948 | 0.775 | 0.617 | 0.701 | 0.755 | 0.713 | 0.656 | 0.751
14 | SK-MES-1 | 0.943 | 1.15 | 0.972 | 1.09 | 1.13 | 1.02 | 1.06 | 1.05 | 0.889 | 1.22 | 1.3 | 1.25 | 1.15 | 0.752 | 0.68 | 0.7 | 0.729 | 0.682
15 | NCI-H838 | 0.895 | 1.09 | 0.785 | 0.975 | 0.948 | 1.02 | 1.02 | 0.928 | 0.986 | 1.09 | 1.2 | 1.05 | 1.18 | 0.63 | 0.616 | 0.676 | 0.568 | 0.635
16 | HCC-15 | 0.862 | 0.933 | 0.739 | 0.847 | 1.12 | 1.01 | 1 | 0.996 | 1.07 | 0.629 | 0.675 | 0.675 | 0.619 | 0.502 | 0.531 | 0.519 | 0.418 | 0.513
17 | EPLC-272H | 0.263 | – | 0.55 | 0.116 | 0.98 | 0.972 | 0.997 | 0.859 | 0.677 | 0.608 | 0.743 | 1.05 | 0.208 | 0.156 | 0.305 | 0.332 | 0.461 | 0.28
18 | UMC-11 | 0.887 | 1.01 | 0.96 | 1.03 | 0.994 | 1.06 | 1.05 | 0.858 | 0.677 | 0.333 | 0.299 | 0.335 | 0.321 | 0.378 | 0.357 | 0.378 | 0.326 | 0.301
19 | HARA | 0.974 | 1.1 | 0.746 | 0.662 | 0.979 | 1.02 | 1.05 | 0.886 | 0.831 | 1.11 | 1.07 | 1.14 | 1.12 | 0.446 | 0.493 | 0.401 | 0.414 | 0.394
20 | NCI-H2170 | 0.956 | 0.985 | 0.987 | 0.989 | – | 1.06 | 1 | 0.858 | 0.582 | 0.551 | 0.624 | 0.624 | 0.758 | – | 0.422 | 0.448 | 0.349 | 0.327
21 | 201T | 1.03 | 1.15 | 0.971 | 1.21 | 0.978 | 1 | 1.01 | 0.961 | 0.977 | 1.21 | 1.23 | 1.12 | 1.31 | 0.491 | 0.449 | 0.497 | 0.376 | 0.456
22 | NCI-H1944 | 0.867 | 1.04 | 0.921 | 1.01 | 0.946 | 0.959 | 1.04 | 0.919 | 0.816 | 0.985 | 1.13 | 1.08 | 1.11 | 0.219 | 0.183 | 0.233 | 0.19 | 0.2
23 | H3255 | 0.94 | 1 | 0.862 | 0.831 | – | 0.96 | 0.993 | 0.884 | 0.231 | 0.479 | 0.59 | 0.375 | 0.213 | – | 0.385 | 0.344 | 0.403 | 0.185
24 | NCI-H1437 | 0.915 | 1 | 0.979 | 0.983 | 0.998 | 1.01 | 0.997 | 1.04 | 1.02 | 1.07 | 1.09 | 1.05 | 1.04 | 0.346 | 0.348 | 0.378 | 0.289 | 0.34
25 | NCI-H2347 | 0.956 | 1.03 | 0.919 | 0.979 | 1.06 | 1.16 | 1.08 | 0.979 | 0.976 | 0.747 | 0.941 | 0.791 | 0.748 | 0.34 | 0.376 | 0.378 | 0.387 | 0.607
26 | SK-LU-1 | 0.888 | 0.777 | 0.939 | 0.47 | 1.09 | 1.03 | 0.899 | 0.554 | 0.467 | 0.462 | 0.471 | 0.819 | 0.351 | 0.635 | 0.57 | 0.461 | 0.296 | 0.258
27 | NCI-H2087 | 0.98 | 1.12 | 0.982 | 1.03 | 1.31 | 1.12 | 1.07 | 0.937 | 1.01 | 1.03 | 0.864 | 1.05 | 1.05 | 0.49 | 0.474 | 0.506 | 0.458 | 0.482
28 | NCI-H727 | 1.02 | 1.01 | 0.858 | 0.979 | 0.83 | 0.923 | 1.13 | 0.798 | 0.805 | 0.409 | 0.426 | 0.366 | 0.483 | 0.653 | 0.659 | 0.572 | 0.462 | 0.544
29 | A549 | 0.876 | 1.01 | 0.928 | 0.999 | 1.04 | 1.02 | 0.986 | 0.913 | 0.998 | 1.24 | 1.26 | 1.2 | 1.14 | – | 0.161 | 0.136 | 0.147 | 0.177
30 | NCI-H520 | 0.955 | 1.05 | 0.947 | 1.1 | 1.06 | 0.999 | 1.13 | 0.981 | 0.97 | 1.07 | 1.15 | 1.1 | 1.15 | 0.589 | 0.548 | 0.675 | 0.499 | 0.589
